# Active and inactive are the calls of the source.
# How the values were obtained:
# [1] = target: T1, Fatty acid synthase (Homo sapiens, UniProt P49327); assay: inhibition of human FAS-TE enzyme activity – biochemical, endpoint fluorescence intensity, uHTS hits, dose response (AID 624327); type: functional;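 further: fluorescence from hydrolysis of an O-methyl fluorescein acyl ester substrate by the enzyme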
# [2] = target: T1, Fatty acid synthase; assay: inhibition of human FAS-TE enzyme activity – biochemical, kinetic fluorescence intensity, dose response (AID 624326); type: functional;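 further: rate of fluorescence rise from hydrolysis of a fluorogenic O-methyl fluorescein ester substrate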
# [3] = target: T2, Carboxy-terminal domain RNA polymerase II polypeptide A small phosphatase 1 (Homo sapiens, UniProt Q9GZU7); assay: CTDSP1 inhibitors, concentration-response, biochemical, absorbance readout, ultra-high-throughput screen actives (AID 540297); type: functional
# T2 sequence (Q9GZU7 whole entry): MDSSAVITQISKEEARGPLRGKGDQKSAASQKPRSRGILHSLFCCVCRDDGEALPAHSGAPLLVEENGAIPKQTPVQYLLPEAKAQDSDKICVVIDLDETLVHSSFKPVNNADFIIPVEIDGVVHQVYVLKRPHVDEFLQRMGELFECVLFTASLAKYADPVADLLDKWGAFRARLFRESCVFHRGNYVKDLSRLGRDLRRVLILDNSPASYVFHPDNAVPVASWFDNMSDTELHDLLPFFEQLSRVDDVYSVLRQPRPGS
# [4] = cells; type: functional, cell-based
# [5] = cells; type: functional, cell-based; remark: listed apart in the source
# [6] = target: Genome polyprotein (dengue virus type 2, UniProt P29990); assay: flavivirus cap methylation enzyme inhibition – biochemical, confirmation dose response, primary screen (AID 588689); type: functional
# [7] = target: Large T antigen (Simian virus 40, UniProt P03070); type: functional, Betapolyomavirus macacae;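 further: Confirmatory-stage PubChem screen for compounds that inhibit SV40 T antigen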
# [8] = target: FAD-linked sulfhydryl oxidase ALR (Homo sapiens, UniProt P55789); assay: ALR-catalysed DTT oxidation blockers – biochemical, H2O2 detection, luminescence, cherry-pick, dose response (AID 493248)
# [9] = fluconazole-exposed Candida albicans growth modulators – fluorescence, retest, confirmation (AID 2467); type: functional, cell-based
# [10] = target: Paired box protein Pax-8 (Homo sapiens, UniProt Q06710); assay: PAX8 transcriptional activity inhibition in RMG-I – RMG-I cells, luciferase, cherry-pick, dose response (AID 687027); type: functional, cell-based;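 further: luciferase reporter driven by Pax8 target thyroperoxidase promoter measured by SteadyGlo luminescence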
# [11] = test system: BJ; assay: BJ-TERT-LT-ST fibroblast viability loss – cell-based, RAS-independent, luminescence, dose response (AID 1935); type: functional; settings: Homo sapiens;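 further: BJ fibroblasts immortalized with TERT plus LT and ST oncogenes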
# [12] = DRD fibroblast viability loss – cell-based, non-viral oncogenic, luminescence, dose response (AID 1934); type: functional; settings: Homo sapiens
# [13] = test system: BJ; assay: cells; type: functional, cell-based; settings: Homo sapiens
# [14] = target: Cytochrome P450 2C9 (Homo sapiens, UniProt P11712)
# [15] = target: Cytochrome P450 2C19 (Homo sapiens, UniProt P33261); assay: Cytochrome panel assay with activity outcomes. Panel member name: p450-cyp2c19 Compounds with AC50 equal or less than 10 uM are considered active; type: functional; settings: read-out: AC50
# [16] = target: T3, Streptokinase A (Streptococcus pyogenes serotype M1, UniProt P10520); assay: viability-normalized secreted streptokinase activity reduction – plasminogen activation absorbance, OD405, dose response (AID 1914); type: functional, Streptococcus pyogenes M1 GAS;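 further: secreted streptokinase activity via plasminogen activation per viability signal from cell pellet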
# T3 sequence (P10520 whole entry): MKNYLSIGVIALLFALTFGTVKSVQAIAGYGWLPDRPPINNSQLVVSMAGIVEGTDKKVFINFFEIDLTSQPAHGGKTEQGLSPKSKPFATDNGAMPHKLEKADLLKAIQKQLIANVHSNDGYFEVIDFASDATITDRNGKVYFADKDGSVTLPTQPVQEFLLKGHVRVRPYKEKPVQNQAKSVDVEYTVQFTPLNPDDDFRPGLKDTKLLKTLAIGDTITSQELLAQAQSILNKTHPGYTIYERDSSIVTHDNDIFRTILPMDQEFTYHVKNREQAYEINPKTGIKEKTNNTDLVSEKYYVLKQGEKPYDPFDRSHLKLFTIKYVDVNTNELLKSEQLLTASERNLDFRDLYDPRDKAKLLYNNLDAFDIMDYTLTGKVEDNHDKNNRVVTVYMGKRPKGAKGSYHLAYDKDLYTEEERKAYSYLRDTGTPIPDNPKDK
# [17] = test system: Streptococcus sp. 'group A'; assay: Streptococcus pyogenes SK(-)GAS viability under kanamycin – luminescence, BacTiterGlo, confirmation, counter-screen for streptokinase expression inhibitor project, dose response (AID 1900); type: functional, organism-based
# [18] = test system: Streptococcus; assay: GAS UMAA2166 growth inhibition – luminescence, BacTiterGlo, counter-screen for streptokinase expression inhibitor project, dose response (AID 1915); type: functional, organism-based;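 further: potency for reduction of bacterial viability or growth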
# [19] = cells; type: functional
# [20] = target: Luciferin 4-monooxygenase (Photinus pyralis, UniProt P08659); assay: inhibition of purified Photinus pyralis luciferase – biochemical, luminescence, dose response (AID 1891)
# [21] = Luminescence Cell-Based Dose Confirmation HTS to Identify Inhibitors of Platelet Dense Granule Release. [Related pubchem assays: 1663 (Primary HTS), 1678 (Summary of Project)]; type: functional
# [22] = target: Cytochrome P450 3A4 (Homo sapiens, UniProt P08684);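 further: CYP3A4 tested as one member of a cytochrome P450 panel screen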
# [23] = target: Cytochrome P450 2D6 (Homo sapiens, UniProt P10635);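 further: CYP2D6 member of a cytochrome P450 panel assay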
# [24] = target: T4, Cytochrome P450 1A2 (Homo sapiens, UniProt P05177);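 further: PubChem cytochrome P450 panel assay, CYP1A2 panel member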
# T4 sequence (P05177 whole entry): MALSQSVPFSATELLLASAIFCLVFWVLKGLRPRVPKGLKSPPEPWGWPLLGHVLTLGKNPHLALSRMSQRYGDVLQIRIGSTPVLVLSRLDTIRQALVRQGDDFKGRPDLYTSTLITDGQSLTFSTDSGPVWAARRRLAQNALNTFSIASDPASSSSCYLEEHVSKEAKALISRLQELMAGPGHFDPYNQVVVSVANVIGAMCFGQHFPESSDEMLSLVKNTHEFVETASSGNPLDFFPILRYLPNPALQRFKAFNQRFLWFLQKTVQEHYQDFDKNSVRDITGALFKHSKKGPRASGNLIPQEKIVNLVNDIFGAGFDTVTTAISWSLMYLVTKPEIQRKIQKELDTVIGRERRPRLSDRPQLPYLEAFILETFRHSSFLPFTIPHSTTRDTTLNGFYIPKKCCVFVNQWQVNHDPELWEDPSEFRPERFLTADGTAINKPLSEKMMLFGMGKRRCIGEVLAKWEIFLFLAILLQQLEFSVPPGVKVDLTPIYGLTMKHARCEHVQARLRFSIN
# [25] = HIV-1 AD8 envelope cell-cell fusion blockers – cherry-pick, dose response (AID 652062); type: functional, cell-based;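 further: luciferase signal from cell-cell fusion driven by HIV-1 clade B AD8 Env; potency is for inhibitors of fusion seen as a drop in luminescence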
# [26] = blockers of HIV-1 envelope-mediated cell-cell fusion – cherry-pick, dose response (AID 652057); type: functional, cell-based
# [27] = OVCAR-3 cell viability loss – plate reader, dry powder samples, PAX8 inhibitor project, dose response (AID 743044); type: functional, cell-based
# [28] = alpha-synuclein stem-loop luciferase translation blockers – H4 neuroglioma cells, luminescence, confirmation (AID 1988); type: functional, cell-based
# [29] = luciferase reporter signal suppression in cells – H4 neuroglioma cells, luminescence, dose response (AID 1990); type: functional, cell-based
# [30] = Luminescence Cell-Based Dose Response HTS to Identify Inhibitors of 5'UTR Stem-Loop Driven Prion Protein mRNA Translation in H4 Neuroglioblastoma Cells. [Related pubchem assays: 1827 (Project Summary), 1813 (Primary HTS)]; type: functional
# [31] = NIH-3T3 fibroblast cytotoxicity, dose response, cytotoxicity control, cell-based, fluorescence, Alamar Blue, secondary assay (AID 2327); type: functional;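 further: NIH-3T3 mouse fibroblasts cultured with fluconazole at 8 µg/mL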
# Paired box protein Pax-8, sequence (Q06710 whole entry): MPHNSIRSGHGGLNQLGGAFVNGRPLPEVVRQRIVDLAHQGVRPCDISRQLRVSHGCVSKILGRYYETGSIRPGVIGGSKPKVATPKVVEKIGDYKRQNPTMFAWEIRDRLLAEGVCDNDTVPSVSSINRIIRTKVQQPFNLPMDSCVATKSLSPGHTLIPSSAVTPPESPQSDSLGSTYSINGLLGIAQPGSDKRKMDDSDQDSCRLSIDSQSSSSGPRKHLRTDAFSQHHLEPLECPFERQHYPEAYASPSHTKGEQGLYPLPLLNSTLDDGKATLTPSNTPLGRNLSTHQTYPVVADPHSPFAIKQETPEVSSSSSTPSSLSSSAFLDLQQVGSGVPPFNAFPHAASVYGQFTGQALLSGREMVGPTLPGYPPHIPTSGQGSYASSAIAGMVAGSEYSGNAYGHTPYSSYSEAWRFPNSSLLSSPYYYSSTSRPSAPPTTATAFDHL
# Cytochrome P450 2C9, sequence (P11712 whole entry): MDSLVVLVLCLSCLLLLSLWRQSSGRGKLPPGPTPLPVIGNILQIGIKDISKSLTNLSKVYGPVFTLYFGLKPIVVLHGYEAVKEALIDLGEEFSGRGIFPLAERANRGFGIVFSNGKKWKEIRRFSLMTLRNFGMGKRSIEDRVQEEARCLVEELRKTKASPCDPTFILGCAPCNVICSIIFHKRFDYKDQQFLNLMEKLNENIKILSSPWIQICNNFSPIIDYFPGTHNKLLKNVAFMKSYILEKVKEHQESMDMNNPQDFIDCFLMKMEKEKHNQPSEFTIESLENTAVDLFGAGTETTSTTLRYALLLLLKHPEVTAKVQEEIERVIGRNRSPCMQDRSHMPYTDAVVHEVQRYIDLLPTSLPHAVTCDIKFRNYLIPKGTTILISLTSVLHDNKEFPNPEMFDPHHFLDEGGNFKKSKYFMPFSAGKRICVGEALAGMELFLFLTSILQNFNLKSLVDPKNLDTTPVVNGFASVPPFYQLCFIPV
# T1 sequence (P49327 whole entry): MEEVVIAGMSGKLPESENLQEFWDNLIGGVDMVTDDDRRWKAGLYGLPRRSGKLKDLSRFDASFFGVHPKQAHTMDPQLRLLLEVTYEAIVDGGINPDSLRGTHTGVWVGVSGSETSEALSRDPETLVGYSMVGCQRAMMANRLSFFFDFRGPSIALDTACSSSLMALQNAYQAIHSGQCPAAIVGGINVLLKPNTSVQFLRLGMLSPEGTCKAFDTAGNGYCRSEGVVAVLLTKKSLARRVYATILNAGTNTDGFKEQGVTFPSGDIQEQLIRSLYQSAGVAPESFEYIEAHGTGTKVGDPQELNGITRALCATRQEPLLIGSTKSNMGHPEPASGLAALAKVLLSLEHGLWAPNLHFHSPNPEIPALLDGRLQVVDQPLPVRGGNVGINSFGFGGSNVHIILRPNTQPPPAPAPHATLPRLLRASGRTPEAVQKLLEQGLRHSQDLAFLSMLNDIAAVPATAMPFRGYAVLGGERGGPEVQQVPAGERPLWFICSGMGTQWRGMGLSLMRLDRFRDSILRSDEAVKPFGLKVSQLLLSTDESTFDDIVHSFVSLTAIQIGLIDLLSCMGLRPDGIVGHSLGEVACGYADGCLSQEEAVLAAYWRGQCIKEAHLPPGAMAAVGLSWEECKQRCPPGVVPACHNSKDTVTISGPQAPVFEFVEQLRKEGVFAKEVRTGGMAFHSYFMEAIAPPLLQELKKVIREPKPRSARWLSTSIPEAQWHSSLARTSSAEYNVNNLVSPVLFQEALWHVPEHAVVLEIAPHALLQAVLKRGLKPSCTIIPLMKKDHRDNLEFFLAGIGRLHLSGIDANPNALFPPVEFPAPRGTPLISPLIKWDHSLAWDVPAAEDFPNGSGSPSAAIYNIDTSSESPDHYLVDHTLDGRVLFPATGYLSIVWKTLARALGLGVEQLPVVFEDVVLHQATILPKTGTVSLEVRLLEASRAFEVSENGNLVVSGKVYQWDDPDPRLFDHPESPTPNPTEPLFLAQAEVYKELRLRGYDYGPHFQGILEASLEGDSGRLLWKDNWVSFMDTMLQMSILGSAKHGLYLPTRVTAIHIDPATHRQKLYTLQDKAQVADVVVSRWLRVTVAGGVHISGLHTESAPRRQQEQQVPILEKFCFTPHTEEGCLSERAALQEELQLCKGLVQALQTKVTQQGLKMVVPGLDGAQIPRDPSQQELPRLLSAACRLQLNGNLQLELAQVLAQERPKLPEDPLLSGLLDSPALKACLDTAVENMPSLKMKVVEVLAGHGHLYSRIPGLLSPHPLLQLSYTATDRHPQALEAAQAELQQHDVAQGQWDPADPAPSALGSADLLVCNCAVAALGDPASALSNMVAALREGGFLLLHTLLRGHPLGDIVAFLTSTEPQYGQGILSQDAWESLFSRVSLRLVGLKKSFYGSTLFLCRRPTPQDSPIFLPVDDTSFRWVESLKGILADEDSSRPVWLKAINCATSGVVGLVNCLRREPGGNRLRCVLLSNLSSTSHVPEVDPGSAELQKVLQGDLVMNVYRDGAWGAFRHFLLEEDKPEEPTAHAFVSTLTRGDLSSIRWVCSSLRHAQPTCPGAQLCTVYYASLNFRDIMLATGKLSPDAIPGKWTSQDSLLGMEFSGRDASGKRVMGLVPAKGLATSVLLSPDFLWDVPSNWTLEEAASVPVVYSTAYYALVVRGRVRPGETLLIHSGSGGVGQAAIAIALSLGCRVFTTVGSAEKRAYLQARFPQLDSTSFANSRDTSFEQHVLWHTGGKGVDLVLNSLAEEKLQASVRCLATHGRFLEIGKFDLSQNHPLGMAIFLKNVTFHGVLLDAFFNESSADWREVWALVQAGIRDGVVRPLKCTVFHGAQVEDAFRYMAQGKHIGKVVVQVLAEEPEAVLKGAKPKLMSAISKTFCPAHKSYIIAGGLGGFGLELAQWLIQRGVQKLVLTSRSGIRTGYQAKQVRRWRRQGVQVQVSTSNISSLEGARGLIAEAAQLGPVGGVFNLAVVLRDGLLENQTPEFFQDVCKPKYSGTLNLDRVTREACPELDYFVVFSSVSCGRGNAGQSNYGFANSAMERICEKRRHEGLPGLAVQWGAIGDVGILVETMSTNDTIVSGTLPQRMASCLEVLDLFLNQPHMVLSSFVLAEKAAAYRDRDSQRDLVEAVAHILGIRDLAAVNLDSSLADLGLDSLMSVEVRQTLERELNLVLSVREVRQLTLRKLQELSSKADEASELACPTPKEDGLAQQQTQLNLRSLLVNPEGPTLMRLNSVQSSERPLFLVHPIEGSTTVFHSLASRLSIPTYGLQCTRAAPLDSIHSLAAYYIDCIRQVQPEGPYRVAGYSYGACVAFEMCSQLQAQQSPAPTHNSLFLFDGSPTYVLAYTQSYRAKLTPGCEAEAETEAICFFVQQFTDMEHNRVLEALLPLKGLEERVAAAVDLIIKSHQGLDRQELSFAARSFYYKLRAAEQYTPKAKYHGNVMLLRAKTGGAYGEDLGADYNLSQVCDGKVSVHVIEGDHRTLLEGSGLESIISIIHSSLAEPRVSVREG
# Cytochrome P450 2D6, sequence (P10635 whole entry): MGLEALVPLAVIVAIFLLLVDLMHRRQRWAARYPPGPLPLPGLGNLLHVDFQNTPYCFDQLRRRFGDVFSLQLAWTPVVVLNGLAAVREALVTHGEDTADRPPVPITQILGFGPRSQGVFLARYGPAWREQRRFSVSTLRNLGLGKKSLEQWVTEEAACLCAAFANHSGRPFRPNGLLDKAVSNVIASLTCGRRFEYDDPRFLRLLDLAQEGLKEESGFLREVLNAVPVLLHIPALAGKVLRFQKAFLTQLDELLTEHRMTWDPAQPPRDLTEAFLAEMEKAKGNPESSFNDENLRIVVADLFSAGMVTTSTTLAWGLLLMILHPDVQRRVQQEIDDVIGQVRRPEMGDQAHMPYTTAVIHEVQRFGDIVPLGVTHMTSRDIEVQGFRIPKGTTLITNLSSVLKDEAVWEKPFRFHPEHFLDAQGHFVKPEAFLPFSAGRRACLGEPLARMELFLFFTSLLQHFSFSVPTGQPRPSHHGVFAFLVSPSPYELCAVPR
# Large T antigen, sequence (P03070 whole entry): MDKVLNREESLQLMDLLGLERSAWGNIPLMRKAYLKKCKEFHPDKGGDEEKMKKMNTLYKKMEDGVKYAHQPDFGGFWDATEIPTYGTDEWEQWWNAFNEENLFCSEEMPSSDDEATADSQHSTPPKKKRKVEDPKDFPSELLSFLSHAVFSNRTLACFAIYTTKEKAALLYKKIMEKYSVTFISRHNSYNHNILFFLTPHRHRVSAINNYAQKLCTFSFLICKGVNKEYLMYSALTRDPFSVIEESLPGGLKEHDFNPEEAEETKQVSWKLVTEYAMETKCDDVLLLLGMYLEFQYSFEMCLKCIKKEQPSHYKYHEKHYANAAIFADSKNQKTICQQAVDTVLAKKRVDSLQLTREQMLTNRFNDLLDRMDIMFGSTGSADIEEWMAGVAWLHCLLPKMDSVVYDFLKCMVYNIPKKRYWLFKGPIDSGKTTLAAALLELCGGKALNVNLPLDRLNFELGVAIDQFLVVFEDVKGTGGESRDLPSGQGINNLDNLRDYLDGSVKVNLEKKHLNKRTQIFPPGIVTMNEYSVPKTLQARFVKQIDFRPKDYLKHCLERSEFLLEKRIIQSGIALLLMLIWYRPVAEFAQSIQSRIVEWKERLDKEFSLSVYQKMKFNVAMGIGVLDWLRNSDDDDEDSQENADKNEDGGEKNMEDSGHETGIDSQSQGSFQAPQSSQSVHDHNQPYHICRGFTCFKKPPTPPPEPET
# FAD-linked sulfhydryl oxidase ALR, sequence (P55789 whole entry): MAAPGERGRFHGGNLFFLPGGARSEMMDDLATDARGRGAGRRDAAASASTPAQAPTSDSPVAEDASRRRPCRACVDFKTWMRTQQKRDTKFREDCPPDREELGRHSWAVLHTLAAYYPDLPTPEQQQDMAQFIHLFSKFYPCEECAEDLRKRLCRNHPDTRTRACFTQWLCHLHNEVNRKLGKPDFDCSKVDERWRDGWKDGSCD
structure (smiles),measurement,setting,value
CCOc1ccc(-c2ccc(NS(=O)(=O)c3cc([N+](=O)[O-])c(C)c([N+](=O)[O-])c3)cc2)nn1,IC50,[1],0.872 µM (active)
same,IC50,[2],0.706 µM (active)
O=C(COC(=O)c1ccc(S(=O)(=O)NCc2ccco2)cc1)Nc1ccc(Cl)cn1,IC50,[3],4.79 µM (active)
NC(=NOC(=O)CC1CCCCC1)c1cccc([N+](=O)[O-])c1,IC50,[1],7.05 µM (active)
same,IC50,[2],8.29 µM (active)
Cc1cc(O)nc(SCC(=O)Nc2nonc2C)n1,EC50,[4],> 350 µM (not active)
same,EC50,[5],> 350 µM (not active)
COc1ccc2c(c1)c(=O)oc1c(C)c(OC(C)C(=O)N[C@@H](Cc3c[nH]c4ccc(O)cc34)C(=O)O)ccc12 (some centres not stated),IC50,[3],6.88 µM (active)
O=C1NN(c2ccccc2)C(=O)/C1=C/c1ccc(-c2cccc(C(=O)O)c2)o1,IC50,[6],30.6 µM (active)
same,IC50,[7],24.3 µM (active)
same,AC50,[8],0.228 µM (active)
same,IC50,[3],11 µM (active)
COc1cc(/C=C(/C#N)C(=O)Nc2ccccc2)ccc1OCc1ccc(C(=O)O)cc1,IC50,[3],3.34 µM (active)
CCOc1ccccc1C1C2=C(O)OCC2=Nc2cc3c(cc21)OCO3 (configuration not stated),EC50,[9],> 38 µM (not active)
same,AC50,[10],2.15 µM (active)
same,EC50,[11],0.442 µM (active)
same,EC50,[12],0.468 µM (active)
same,EC50,[13],1.11 µM (inconclusive)
O=C(CNC(=O)c1ccc([N+](=O)[O-])cc1)c1ccccc1,AC50,[14],inconclusive
same,AC50,[15],2.82 µM (inconclusive)
CCOc1ccccc1/C=C(\C#N)C(N)=O,AC50,[14],inconclusive
O=C(Nc1nnc(-c2ccc(Br)cc2)o1)c1ccco1,EC50,[16],> 150 µM (not active)
same,EC50,[17],3.78 µM (active)
same,EC50,[18],13.7 µM (active)
same,IC50,[19],3.95 µM (active)
COCCNC(=O)CSc1nc(-c2ccc(OC)c(OC)c2)cc(C(F)(F)F)n1,EC50,[20],> 112 µM (not active)
same,EC50,[21],> 112 µM (not active)
COc1ccc(S(=O)(=O)NCCC(=O)NCc2ccc(F)cc2)cc1,AC50,[22],28.2 µM (inconclusive)
same,AC50,[14],inconclusive
same,AC50,[23],50.1 µM (inconclusive)
Cc1ccc(S(=O)(=O)Nc2cccc(-c3ccc(N4CCCCCC4)nn3)c2)cc1,IC50,[1],6.68 µM (active)
same,IC50,[2],3.42 µM (active)
COc1ccc(S(=O)(=O)N2CCN(CC(=O)Nc3cccc(F)c3)CC2)cc1,AC50,[24],0.0794 µM (inconclusive)
same,AC50,[14],inconclusive
same,AC50,[23],25.1 µM (inconclusive)
O=C(Cn1ncc(Cl)c(Cl)c1=O)NC1CCS(=O)(=O)C1 (configuration not stated),IC50,[3],8.49 µM (active)
CC1CCCC(C)N1C(=O)COC(=O)c1cc([N+](=O)[O-])ccc1N1CCOCC1 (configuration not stated),IC50,[1],7.31 µM (active)
same,IC50,[2],9.93 µM (active)
O=C(NCC1CCCO1)c1cc(-c2ccc(F)cc2)no1 (configuration not stated),EC50,[4],> 350 µM (not active)
same,EC50,[5],143 µM (active)
CN(CC1CCCO1)S(=O)(=O)c1ccc(C(=O)Nc2nccs2)cc1 (configuration not stated),EC50,[4],> 350 µM (not active)
same,EC50,[5],> 350 µM (not active)
O=C(c1cccnc1)c1cc2ccccc2[nH]1,EC50,[4],31.3 µM (active)
same,EC50,[5],> 350 µM (not active)
COc1ccc(/C=C(\NC(=O)c2ccc([N+](=O)[O-])cc2)C(=O)NCCCn2ccnc2)cc1,IC50,[1],2.35 µM (active)
same,IC50,[2],3.01 µM (active)
COc1ccc(N/C=C\C(=O)c2ccc3c(c2)OCO3)cc1,EC50,[4],4.39 µM (active)
same,EC50,[5],> 350 µM (not active)
COc1ccc(CCNC(=O)CC(NC(=O)c2ccccc2Cl)c2ccccc2)cc1 (configuration not stated),EC50,[4],> 350 µM (not active)
same,EC50,[5],> 350 µM (not active)
N=C1/C(=C\c2ccc(Br)o2)C(=O)N=C2SC(CC(=O)N3CCCCC3)=NN12,IC50,[7],> 100 µM (active)
same,IC50,[3],26.7 µM (active)
CC(=O)Nc1cc(S(=O)(=O)Nc2ccccc2)c(C)cc1C,AC50,[22],28.2 µM (inconclusive)
same,AC50,[14],inconclusive
O=C(OCC(=O)N1CCN(c2ccccc2)CC1)c1ccc(Cl)cc1[N+](=O)[O-],IC50,[19],> 50 µM (active)
C[C@H](CO)N1C[C@H](C)[C@H](CN(C)S(=O)(=O)c2cccs2)Oc2ccc(NC(=O)NC3CCCCC3)cc2CC1=O,AC50,[25],3.49 µM (active)
same,AC50,[26],1.19 µM (active)
O=C(C[C@@H]1C[C@H]2c3cc(NC(=O)Nc4ccc(C(F)(F)F)cc4)ccc3O[C@H]2[C@H](CO)O1)NCc1ccc(Cl)cc1,AC50,[27],68.2 µM (active)
same,AC50,[10],17.5 µM (active)
C[C@H]1CN([C@@H](C)CO)S(=O)(=O)c2ccc(C#Cc3ccc(F)cc3)cc2O[C@H]1CN(C)C(=O)NC1CCCCC1,AC50,[27],44.5 µM (active)
same,AC50,[10],8.09 µM (active)
CCNC(=O)C[C@@H]1CC[C@@H]2[C@@H](COc3ccc(NC(=O)Cc4cccs4)cc3C(=O)N2C)O1,AC50,[25],41.5 µM (active)
O=C(C[C@H]1CC[C@@H](NC(=O)c2cccc(F)c2)[C@H](CO)O1)NCc1ccc(Oc2ccccc2)cc1,AC50,[25],1.17 µM (active)
same,AC50,[26],1.2 µM (active)
Cc1ccc(C(=O)N/N=C/c2cc(C)n(-c3ccc(Br)cc3)c2C)cc1[N+](=O)[O-],EC50,[28],16.7 µM (active)
same,EC50,[29],11.2 µM (active)
same,AC50,[14],inconclusive
same,EC50,[30],17.4 µM (active)
C[n+]1ccccc1C1CCCC/C1=N\NC(N)=S (configuration not stated),IC50,[3],5.71 µM (active)
CCOC(=O)/C(=N\Nc1cccc(C(F)(F)F)c1)N1CCOCC1,EC50,[9],> 38 µM (not active)
same,EC50,[31],> 160 µM (inconclusive)
same,EC50,[4],320 µM (active)
same,EC50,[5],> 350 µM (not active)
CC(C)C(=O)c1c(C(C)C)nn2ccccc12 [IBUDILAST],AC50,[14],inconclusive
same,AC50,[15],3.16 µM (inconclusive)
Oc1c(Br)c(Br)c(Br)c(Br)c1Br [PENTABROMOPHENOL],IC50,[1],6.27 µM (active)
same,IC50,[2],6.52 µM (active)
